From patent US20180250280A1 (BAYER PHARMA AKTIENGESELLSCHAFT, priority 2015, published 2018)

Assays:
[1] = molecular target: T1, human factor XIa (Homo sapiens, UniProt P03951); assay: Measurement of FXIa inhibition (fluorogenic peptide substrate, AMC cleavage); assay type: biochemical; conditions: factor XIa from Kordia 0.45 nM; substrate Boc-Glu(OBzl)-Ala-Arg-AMC 10 μM; 30 min at 22° C.; in some cases averages from multiple determinations
T1 construct: purchased Kordia

[2] = molecular target: T2, human plasma kallikrein (Homo sapiens, UniProt P03952); assay: Determination of the plasma kallikrein activity (fluorogenic peptide substrate, AMC cleavage); assay type: biochemical; conditions: plasma kallikrein from Kordia 0.6 nM; substrate H-Pro-Phe-Arg-AMC 10 μM; 30 min at 22° C.; in some cases averages from multiple determinations
T2 construct: purchased Kordia
Outline: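 Kallikrein cleavage of H-Pro-Phe-Arg-AMC was followed by AMC fluorescence (ex 360, em 460) after 15 min enzyme–compound preincubation. IC50 was derived versus DMSO controls over final concentrations of 50 μM to 0.00013 μM.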

T1 sequence (P03951 388-625 limits assumed): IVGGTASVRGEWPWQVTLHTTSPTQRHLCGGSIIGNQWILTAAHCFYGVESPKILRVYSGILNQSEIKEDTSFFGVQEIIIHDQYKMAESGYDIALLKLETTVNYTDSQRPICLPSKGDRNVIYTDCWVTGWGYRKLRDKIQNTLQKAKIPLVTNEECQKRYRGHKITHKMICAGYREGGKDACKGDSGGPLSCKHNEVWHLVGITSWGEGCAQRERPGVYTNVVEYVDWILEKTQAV
T1 sequence (P03951 19-387 partner limits assumed): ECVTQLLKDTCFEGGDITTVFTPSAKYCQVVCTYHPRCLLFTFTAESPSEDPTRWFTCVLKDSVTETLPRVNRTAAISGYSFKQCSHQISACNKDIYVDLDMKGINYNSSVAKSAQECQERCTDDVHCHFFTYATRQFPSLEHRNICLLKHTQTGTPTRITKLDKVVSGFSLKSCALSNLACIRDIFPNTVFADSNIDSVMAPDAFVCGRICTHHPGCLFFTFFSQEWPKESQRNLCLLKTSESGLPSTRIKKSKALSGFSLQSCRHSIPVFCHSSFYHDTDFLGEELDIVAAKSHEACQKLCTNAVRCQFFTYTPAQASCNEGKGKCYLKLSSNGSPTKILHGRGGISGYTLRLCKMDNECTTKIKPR
T2 sequence (P03952 391-638 limits assumed): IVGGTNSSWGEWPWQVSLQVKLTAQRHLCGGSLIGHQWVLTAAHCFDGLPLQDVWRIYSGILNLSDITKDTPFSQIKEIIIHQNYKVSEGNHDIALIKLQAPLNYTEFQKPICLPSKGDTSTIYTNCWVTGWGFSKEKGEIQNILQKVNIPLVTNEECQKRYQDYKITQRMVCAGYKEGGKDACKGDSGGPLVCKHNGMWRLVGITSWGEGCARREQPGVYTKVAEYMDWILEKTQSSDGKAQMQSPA
T2 sequence (P03952 20-390 partner limits assumed): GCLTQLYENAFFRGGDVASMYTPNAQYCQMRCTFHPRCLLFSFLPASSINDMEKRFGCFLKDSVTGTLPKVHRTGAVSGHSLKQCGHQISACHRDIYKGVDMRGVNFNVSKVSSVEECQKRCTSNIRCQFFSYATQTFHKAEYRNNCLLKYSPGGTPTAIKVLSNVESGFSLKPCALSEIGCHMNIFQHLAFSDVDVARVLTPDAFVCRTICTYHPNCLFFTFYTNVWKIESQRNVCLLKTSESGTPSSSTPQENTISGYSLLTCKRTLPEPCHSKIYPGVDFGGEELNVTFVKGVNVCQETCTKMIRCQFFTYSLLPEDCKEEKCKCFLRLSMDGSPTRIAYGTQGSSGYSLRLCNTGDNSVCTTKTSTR

COc1cn([C@@H](CCOC(C)(C)C)C(=O)Nc2ccc(C(=O)O)s2)c(=O)cc1-c1cc(Cl)ccc1OCC(F)(F)F (single isomer, unassigned) [Example 69, 5-{[4-tert-Butoxy-2-{4-[5-chloro-2-(2,2,2-trifluoroethoxy)phenyl]-5-methoxy-2-oxopyridin-1(2H)-yl}butanoyl]amino}thiophene-2-carboxylic acid]
IC50 [1]: 0.88 nM | IC50 [2]: 8.9 nM

COc1cc(NC(=O)[C@H](CCOC(C)(C)C)n2cc(OC)c(-c3cc(Cl)ccc3OCC(F)(F)F)cc2=O)ccc1C(=O)O (single isomer, unassigned) [Example 70, 4-{[4-tert-Butoxy-2-{4-[5-chloro-2-(2,2,2-trifluoroethoxy)phenyl]-5-methoxy-2-oxopyridin-1(2H)-yl}butanoyl]amino}-2-methoxybenzoic acid]
IC50 [1]: 1.3 nM | IC50 [2]: 58 nM

COc1cn([C@@H](CCOC(C)(C)C)C(=O)Nc2ccc3nc(C(=O)O)cn3c2)c(=O)cc1-c1cc(Cl)ccc1OCC(F)(F)F (single isomer, unassigned) [Example 71, 6-{[4-tert-Butoxy-2-{4-[5-chloro-2-(2,2,2-trifluoroethoxy)phenyl]-5-methoxy-2-oxopyridin-1(2H)-yl}butanoyl]amino}imidazo[1,2-a]pyridine-2-carboxylic acid]
IC50 [1]: 0.93 nM | IC50 [2]: 10 nM

COc1cn([C@@H](C[C@@H]2CCCCO2)C(=O)Nc2ccc(C(=O)O)cc2)c(=O)cc1-c1cc(Cl)ccc1OCC(F)(F)F (single isomer, unassigned) [Example 78]
IC50 [1]: 0.41 nM | IC50 [2]: 19 nM

COc1cn(C(CC2COCCO2)C(=O)Nc2ccc(C(=O)O)cc2)c(=O)cc1-c1cc(Cl)ccc1OCC(F)(F)F (centres unmarked) [Example 17, 4-{[2-{4-[5-Chloro-2-(2,2,2-trifluoroethoxy)phenyl]-5-methoxy-2-oxopyridin-1(2H)-yl}-3-(1,4-dioxan-2-yl)propanoyl]amino}benzoic acid]
IC50 [1]: 0.82 nM | IC50 [2]: 47 nM

COc1cn(C(CC2COCCO2)C(=O)Nc2ccc(C(N)=O)nc2)c(=O)cc1-c1cc(Cl)ccc1OCC(F)(F)F (centres unmarked) [Example 18, 5-{[2-{4-[5-Chloro-2-(2,2,2-trifluoroethoxy)phenyl]-5-methoxy-2-oxopyridin-1(2H)-yl}-3-(1,4-dioxan-2-yl)propanoyl]amino}pyridine-2-carboxamide]
IC50 [1]: 3.2 nM | IC50 [2]: 55 nM

CNC(=O)c1ccc(NC(=O)C(CC2COCCO2)n2cc(OC)c(-c3cc(Cl)ccc3OCC(F)(F)F)cc2=O)cn1 (centres unmarked) [Example 19, 5-{[2-{4-[5-Chloro-2-(2,2,2-trifluoroethoxy)phenyl]-5-methoxy-2-oxopyridin-1(2H)-yl}-3-(1,4-dioxan-2-yl)propanoyl]amino}-N-methylpyridine-2-carboxamide]
IC50 [1]: 3.4 nM | IC50 [2]: 38 nM

COc1cn(C(C[C@H]2CCCCO2)C(=O)Nc2ccc(C(=O)O)cc2)c(=O)cc1-c1cc(Cl)ccc1OCC(F)(F)F (stereo partly drawn) [Example 20, 4-[(2-{4-[5-Chloro-2-(2,2,2-trifluoroethoxy)phenyl]-5-methoxy-2-oxopyridin-1(2H)-yl}-3-[(2R)-tetrahydro-2H-pyran-2-yl]propanoyl)amino]benzoic acid]
IC50 [1]: 2.5 nM | IC50 [2]: 120 nM

COc1cn(C(C[C@H]2CCCCO2)C(=O)Nc2ccc3nn(C)cc3c2)c(=O)cc1-c1cc(Cl)ccc1OCC(F)(F)F (stereo partly drawn) [Example 21, 2-{4-[5-Chloro-2-(2,2,2-trifluoroethoxy)phenyl]-5-methoxy-2-oxopyridin-1(2H)-yl}-N-(2-methyl-2H-indazol-5-yl)-3-[(2R)-tetrahydro-2H-pyran-2-yl]propanamide]
IC50 [1]: 16 nM | IC50 [2]: 150 nM

CNC(=O)c1ccc(NC(=O)C(C[C@H]2CCCCO2)n2cc(OC)c(-c3cc(Cl)ccc3OCC(F)(F)F)cc2=O)cn1 (stereo partly drawn) [Example 22, 5-[(2-{4-[5-Chloro-2-(2,2,2-trifluoroethoxy)phenyl]-5-methoxy-2-oxopyridin-1(2H)-yl}-3-[(2R)-tetrahydro-2H-pyran-2-yl]propanoyl)amino]-N-methylpyridine-2-carboxamide]
IC50 [1]: 18 nM | IC50 [2]: 170 nM
